Key:
Experiment in all cases: relative viability (nuclei count vs DMSO), 5 days (fraction); higher = more cells survive
201T = test system: 201T
Method in brief: (§1)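 Medians of duplicate plates are given as relative viability. That measure is the nuclei count in treated wells divided by the count in vehicle wells. Counts were taken on 4× images of lung cancer cell lines in 1536-well plates, 5 days after pin-tool dosing the day after seeding with one drug alone or a fixed anchor-drug dose plus five library-drug doses (not always all listed) in √10 steps.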

A-427 = test system: A-427
Method in brief: as §1

BEN = test system: BEN
Method in brief: as §1

COR-L23 = test system: COR-L23
Method in brief: as §1

EKVX = test system: EKVX
Method in brief: as §1

HARA = test system: HARA
Method in brief: as §1

HCC-15 = test system: HCC-15
Method in brief: as §1

HCC-44 = test system: HCC-44
Method in brief: as §1

HCC-827 = test system: HCC-827
Method in brief: as §1

NCI-H1437 = test system: NCI-H1437
Method in brief: as §1

NCI-H1650 = test system: NCI-H1650
Method in brief: as §1

NCI-H1666 = test system: NCI-H1666
Method in brief: as §1

NCI-H1975 = test system: NCI-H1975
Method in brief: as §1

NCI-H2342 = test system: NCI-H2342
Method in brief: as §1

NCI-H23 = test system: NCI-H23
Method in brief: as §1

NCI-H358 = test system: NCI-H358
Method in brief: as §1

NCI-H441 = test system: NCI-H441
Method in brief: as §1

NCI-H596 = test system: NCI-H596
Method in brief: as §1

NCI-H650 = test system: NCI-H650
Method in brief: as §1

NCI-H838 = test system: NCI-H838
Method in brief: as §1

SK-MES-1 = test system: SK-MES-1
Method in brief: as §1

SW 900 = test system: SW 900
Method in brief: as §1

Question: Which relative viability (201T; first compound 0.01 µM) does the source give for `CCN(CC)CCCCNc1ncc2cc(-c3cc(OC)cc(OC)c3)c(NC(=O)NC(C)(C)C)nc2n1` + Cc1cc(Nc2cc(N3CCN(C)CC3)nc(Sc3ccc(NC(=O)C4CC4)cc3)n2)n[nH]1 [Tozasertib] (partner 0.1 µM) here?
Answer: 0.995

Question: What about the relative viability (201T; first compound 0.03162 µM) of the same molecule?
Answer: 0.992

Question: What about the relative viability (201T; first compound 0.1 µM) of the same molecule?
Answer: 0.979

Question: What about the relative viability (201T; first compound 0.3162 µM) of the same molecule?
Answer: 1.02

Question: What about the relative viability (201T; first compound 1 µM) of the same molecule?
Answer: 0.721

Question: And the relative viability (A-427; first compound 0.01 µM)?
Answer: 0.199

Question: What about the relative viability (A-427; first compound 0.03162 µM) of the same molecule?
Answer: 0.206

Question: What about the relative viability (A-427; first compound 0.1 µM) of the same molecule?
Answer: 0.202

Question: What about the relative viability (A-427; first compound 0.3162 µM) of the same molecule?
Answer: 0.174

Question: What about the relative viability (A-427; first compound 1 µM) of the same molecule?
Answer: 0.182

Question: And the relative viability (BEN; first compound 0.01 µM)?
Answer: 0.371

Question: What about the relative viability (BEN; first compound 0.03162 µM) of the same molecule?
Answer: 0.508

Question: What about the relative viability (BEN; first compound 0.1 µM) of the same molecule?
Answer: 0.515

Question: And the relative viability (BEN; first compound 0.3162 µM)?
Answer: 0.489

Question: What about the relative viability (BEN; first compound 1 µM) of the same molecule?
Answer: 0.507

Question: And the relative viability (COR-L23; first compound 0.01 µM)?
Answer: 0.226

Question: What about the relative viability (COR-L23; first compound 0.03162 µM) of the same molecule?
Answer: 0.205

Question: What about the relative viability (COR-L23; first compound 0.1 µM) of the same molecule?
Answer: 0.157

Question: What about the relative viability (COR-L23; first compound 0.3162 µM) of the same molecule?
Answer: 0.206

Question: What about the relative viability (COR-L23; first compound 1 µM) of the same molecule?
Answer: 0.171

Question: What about the relative viability (EKVX; first compound 0.01 µM) of the same molecule?
Answer: 0.475

Question: And the relative viability (EKVX; first compound 0.03162 µM)?
Answer: 0.383

Question: And the relative viability (EKVX; first compound 0.1 µM)?
Answer: 0.407

Question: And the relative viability (EKVX; first compound 0.3162 µM)?
Answer: 0.558

Question: What about the relative viability (EKVX; first compound 1 µM) of the same molecule?
Answer: 0.366

Question: And the relative viability (HARA; first compound 0.01 µM)?
Answer: 0.104

Question: What about the relative viability (HARA; first compound 0.03162 µM) of the same molecule?
Answer: 0.122

Question: What about the relative viability (HARA; first compound 0.1 µM) of the same molecule?
Answer: 0.0948

Question: And the relative viability (HARA; first compound 0.3162 µM)?
Answer: 0.0933

Question: And the relative viability (HARA; first compound 1 µM)?
Answer: 0.0989

Question: What about the relative viability (HCC-15; first compound 0.01 µM) of the same molecule?
Answer: 0.45

Question: What about the relative viability (HCC-15; first compound 0.03162 µM) of the same molecule?
Answer: 0.311

Question: What about the relative viability (HCC-15; first compound 0.1 µM) of the same molecule?
Answer: 0.428

Question: What about the relative viability (HCC-15; first compound 0.3162 µM) of the same molecule?
Answer: 0.342

Question: What about the relative viability (HCC-15; first compound 1 µM) of the same molecule?
Answer: 0.247

Question: And the relative viability (HCC-44; first compound 0.01 µM)?
Answer: 1.1

Question: What about the relative viability (HCC-44; first compound 0.03162 µM) of the same molecule?
Answer: 1.07

Question: And the relative viability (HCC-44; first compound 0.1 µM)?
Answer: 0.953

Question: And the relative viability (HCC-44; first compound 0.3162 µM)?
Answer: 0.899

Question: What about the relative viability (HCC-44; first compound 1 µM) of the same molecule?
Answer: 0.85

Question: What about the relative viability (HCC-827; first compound 0.01 µM) of the same molecule?
Answer: 0.536

Question: And the relative viability (HCC-827; first compound 0.03162 µM)?
Answer: 0.394

Question: And the relative viability (HCC-827; first compound 0.1 µM)?
Answer: 0.423

Question: What about the relative viability (HCC-827; first compound 0.3162 µM) of the same molecule?
Answer: 0.547

Question: What about the relative viability (HCC-827; first compound 1 µM) of the same molecule?
Answer: 0.396

Question: And the relative viability (NCI-H1437; first compound 0.01 µM)?
Answer: 0.426

Question: And the relative viability (NCI-H1437; first compound 0.03162 µM)?
Answer: 0.403

Question: And the relative viability (NCI-H1437; first compound 0.1 µM)?
Answer: 0.374

Question: And the relative viability (NCI-H1437; first compound 0.3162 µM)?
Answer: 0.46

Question: And the relative viability (NCI-H1437; first compound 1 µM)?
Answer: 0.335

Question: And the relative viability (NCI-H1650; first compound 0.01 µM)?
Answer: 0.362

Question: And the relative viability (NCI-H1650; first compound 0.03162 µM)?
Answer: 0.305

Question: And the relative viability (NCI-H1650; first compound 0.1 µM)?
Answer: 0.392

Question: What about the relative viability (NCI-H1650; first compound 0.3162 µM) of the same molecule?
Answer: 0.361

Question: And the relative viability (NCI-H1650; first compound 1 µM)?
Answer: 0.247

Question: What about the relative viability (NCI-H1666; first compound 0.01 µM) of the same molecule?
Answer: 0.529

Question: What about the relative viability (NCI-H1666; first compound 0.03162 µM) of the same molecule?
Answer: 0.635

Question: What about the relative viability (NCI-H1666; first compound 0.1 µM) of the same molecule?
Answer: 0.673

Question: What about the relative viability (NCI-H1666; first compound 0.3162 µM) of the same molecule?
Answer: 0.672

Question: And the relative viability (NCI-H1666; first compound 1 µM)?
Answer: 0.614

Question: And the relative viability (NCI-H1975; first compound 0.01 µM)?
Answer: 0.876

Question: And the relative viability (NCI-H1975; first compound 0.03162 µM)?
Answer: 0.859

Question: And the relative viability (NCI-H1975; first compound 0.1 µM)?
Answer: 1.1

Question: What about the relative viability (NCI-H1975; first compound 0.3162 µM) of the same molecule?
Answer: 0.992

Question: And the relative viability (NCI-H1975; first compound 1 µM)?
Answer: 0.407

Question: And the relative viability (NCI-H2342; first compound 0.01 µM)?
Answer: 0.448

Question: What about the relative viability (NCI-H2342; first compound 0.03162 µM) of the same molecule?
Answer: 0.513

Question: What about the relative viability (NCI-H2342; first compound 0.1 µM) of the same molecule?
Answer: 0.476

Question: What about the relative viability (NCI-H2342; first compound 0.3162 µM) of the same molecule?
Answer: 0.469

Question: What about the relative viability (NCI-H2342; first compound 1 µM) of the same molecule?
Answer: 0.537

Question: What about the relative viability (NCI-H23; first compound 0.01 µM) of the same molecule?
Answer: 0.408

Question: And the relative viability (NCI-H23; first compound 0.03162 µM)?
Answer: 0.405

Question: And the relative viability (NCI-H23; first compound 0.1 µM)?
Answer: 0.352

Question: And the relative viability (NCI-H23; first compound 0.3162 µM)?
Answer: 0.301

Question: And the relative viability (NCI-H23; first compound 1 µM)?
Answer: 0.339

Question: And the relative viability (NCI-H358; first compound 0.01 µM)?
Answer: 0.108

Question: What about the relative viability (NCI-H358; first compound 0.03162 µM) of the same molecule?
Answer: 0.0902

Question: What about the relative viability (NCI-H358; first compound 0.1 µM) of the same molecule?
Answer: 0.115

Question: And the relative viability (NCI-H358; first compound 0.3162 µM)?
Answer: 0.104

Question: What about the relative viability (NCI-H358; first compound 1 µM) of the same molecule?
Answer: 0.101

Question: What about the relative viability (NCI-H441; first compound 0.01 µM) of the same molecule?
Answer: 0.544

Question: And the relative viability (NCI-H441; first compound 0.03162 µM)?
Answer: 0.714

Question: And the relative viability (NCI-H441; first compound 0.1 µM)?
Answer: 0.821

Question: What about the relative viability (NCI-H441; first compound 0.3162 µM) of the same molecule?
Answer: 0.616

Question: What about the relative viability (NCI-H441; first compound 1 µM) of the same molecule?
Answer: 0.597

Question: What about the relative viability (NCI-H596; first compound 0.01 µM) of the same molecule?
Answer: 0.911

Question: And the relative viability (NCI-H596; first compound 0.03162 µM)?
Answer: 0.903

Question: And the relative viability (NCI-H596; first compound 0.1 µM)?
Answer: 1.05

Question: What about the relative viability (NCI-H596; first compound 0.3162 µM) of the same molecule?
Answer: 0.828

Question: What about the relative viability (NCI-H596; first compound 1 µM) of the same molecule?
Answer: 0.747

Question: And the relative viability (NCI-H650; first compound 0.01 µM)?
Answer: 0.714

Question: And the relative viability (NCI-H650; first compound 0.03162 µM)?
Answer: 0.757

Question: What about the relative viability (NCI-H650; first compound 0.1 µM) of the same molecule?
Answer: 0.765

Question: And the relative viability (NCI-H650; first compound 0.3162 µM)?
Answer: 0.704

Question: And the relative viability (NCI-H650; first compound 1 µM)?
Answer: 0.66

Question: What about the relative viability (NCI-H838; first compound 0.01 µM) of the same molecule?
Answer: 0.315

Question: And the relative viability (NCI-H838; first compound 0.03162 µM)?
Answer: 0.282

Question: And the relative viability (NCI-H838; first compound 0.1 µM)?
Answer: 0.259

Question: And the relative viability (NCI-H838; first compound 0.3162 µM)?
Answer: 0.271

Question: What about the relative viability (NCI-H838; first compound 1 µM) of the same molecule?
Answer: 0.205

Question: What about the relative viability (SK-MES-1; first compound 0.01 µM) of the same molecule?
Answer: 1.01

Question: And the relative viability (SK-MES-1; first compound 0.03162 µM)?
Answer: 1.02

Question: What about the relative viability (SK-MES-1; first compound 0.1 µM) of the same molecule?
Answer: 1.1

Question: And the relative viability (SK-MES-1; first compound 0.3162 µM)?
Answer: 1.03

Question: And the relative viability (SK-MES-1; first compound 1 µM)?
Answer: 0.879

Question: And the relative viability (SW 900; first compound 0.01 µM)?
Answer: 0.662

Question: And the relative viability (SW 900; first compound 0.03162 µM)?
Answer: 0.573

Question: And the relative viability (SW 900; first compound 0.3162 µM)?
Answer: 0.451

Question: What about the relative viability (SW 900; first compound 1 µM) of the same molecule?
Answer: 0.382

Source: the supplement of paper PMC10307832
